“Also recorded” adds a separate entry of the source.
Assay: TEWL (trans-epidermal water loss) measurement on in-vitro skin model
Conditions: 50 μL applied on hydrated artificial skin membrane on a Franz Cell, Vapometer, TEWL during 60 min, normalized to pre-treatment reference (100%)
Source text: The present inventors have investigated the moisturizing potential of perfume ingredients. To perform this assessment they used a model called a skin replicating surface, and measured the transepidermal water loss (TEWL) before and after the deposit of a sample of the perfume ingredient. This is measure of the moisturizing activity of the perfume ingredient.
The moisturizing activity of a fragrance component may be calculated as follows. • a step of controlled deposition of a fragrance component upon an skin replicating surface, • a step of measurement of a quantity of evaporated water from the skin replicating surface or of remaining water on the skin replicating surface after the deposition of the fragrance component at different measurement times, • a step of reduction of the water evaporation rate calculation depending on the measured evaporated or remaining water quantities measured, • a step of moisturizing activity calculation as a function of the water evaporation rate measured.
The skin replicating surface comprising (i) a hydrogel membrane layer comprising a water permeable substrate supporting a biopolymer, and (ii) a stratum corneum mimic layer.
The hydrogel membrane composition should include a knitted cotton piece topped by a hydrogel containing biopolymer (gelatin) able to form a hydrogel with water and glycerol.
The stratum corneum mimic layer can be a Vitro-Corneum substrate (product of IMS inc.)
Before measurements, the hydrogel membrane and the Vitro-Corneum substrate should be separately hydrated in a hydration chamber and then, assembled. The Vitro-Corneum substrate is made of proteins and lipids and mimics the thickness, the visco-elasticity, the chemical reactivity and the surface properties of human stratum corneum. The hydrogel allows to keep the Vitro-Corneum substrate hydrated.
Hydrogel is prepared by mixing gelatin, glycerol and water at a water bath in the following composition. Preferably around 50% of the hydrogel is glycerol and around 5% is gelatin completed to 100% with water. This is added to a supporting surface and allowed to set.
Both part of the artificial skin model needs to be hydrated before being assembled. Hydrogel membranes and the Vitro-Corneum substrate (2×2 cm) are placed into an hydration chamber containing the glycerol/water wetting solution. Hydrogel membranes are hydrated and Vitro-Corneum substrates are hydrated. When the hydration is complete, the Vitro-Corneum substrate is deposited on the hydrogel. The final skin model is now ready for experiments.
The TEWL (Trans-Epidermal Water Loss) measurements were performed with a Vapometer and Moisturemeter, product of Delfin Technologies (Finland).
Hydrated artificial skin membrane is placed on the top of a Franz Cell, 50 μL of the product to be tested is applied on the membrane and spread manually with a finger protected by a glove. The Vapometer measures the water evaporation rate thanks to sensitive humidity sensors mounted in a cylindrical measurement chamber at the core of the device. During the measurement, the chamber is closed by the support and unaffected by ambient airflows. The water evaporation rate (g/m^2 h) is calculated from the increase of relative humidity in function of time. Ambient temperature and humidity are recorded using an external room sensor.
For our TEWL measurement method, each experiment lasts one hour, and several measurements were taken at different time points during this period.
All the experiments were compared to a reference system: hydrated artificial skin model, pre-treatment, without raw material application. […] For each experiment, the evaporation rate was measured before the ingredient application and the TEWL results were normalized by its value. With the normalization, the reference corresponds to 100% of water evaporation.

| Compound | moisturizing (reduction of water evaporation rate / TEWL after deposit of the sample) | further results |
| --- | --- | --- |
| 1-oxa-12-cyclohexadecen-2-one (a)+1-oxa-13-cyclohexadecen-2-one | suitable moisturizing potential | – |
| CC(=O)[C@]1(C)CC2=C(CCCC2(C)C)C[C@H]1C (racemic) [1-((2rs,3rs)-2,3,8,8-tetramethyl-1,2,3,4,5,6,7,8-octahydronaphthalen-2-yl)ethenone] | suitable moisturizing potential | – |
| CO[C@@]1(C)CC[C@@]23C[C@@H]1C(C)(C)[C@@H]2CC[C@H]3C (racemic) [(+−)-8-methoxycedrane] | have moisturizing effects; also recorded: suitable moisturizing potential | – |
| CC1/C=C/CCCCCCCCCCC(=O)C1 (racemic) [(+−)-(4e)-3-methyl-4-cyclopentadecen-1-one] | suitable moisturizing potential | – |
| C=CCCC(=O)C1=CCCC(C)(C)C1 [1-(5,5-dimethyl-1-cyclohexen-1-yl)-4-penten-1-one] | suitable moisturizing potential | – |
| C=C(C)C1CC=C(C)CC1 (stereo not shown) [1-methyl-4-(1-methylethenyl)-cyclohexene] | have moisturizing effects; also recorded: suitable moisturizing potential | – |
| CCC(=O)OCC(=O)O[C@@H](C)[C@@H]1CCCC(C)(C)C1 [2-{(1S)-1-[(1R)-3,3-dimethylcyclohexyl]ethoxy}-2-oxoethyl propionate] | have moisturizing effects | – |
| CC1(C)CCC[C@]2(C)[C@H]3CCO[C@]3(C)CC[C@@H]12 [(3ar,5as,9as,9br)-3a,6,6,9a-tetramethyldodecahydronaphtho[2,1-b]furan] | suitable moisturizing potential | – |
| CCC(=O)OCC(C)(C)O[C@@H](C)[C@@H]1CCCC(C)(C)C1 [(+)-2-{(1S)-1-[(1R)-3,3-dimethylcyclohexyl]ethoxy}-2-methylpropyl propionate] | suitable moisturizing potential | – |
| CCCCC[C@@H]1C(=O)CCCC[C@H]1CC(=O)OC [(+)-methyl (1s)-trans-3-oxo-2-pentyl-1-cycloheptaneacetate] | suitable moisturizing potential | moisturizing (reduction of water evaporation rate / TEWL after deposit of the sample) (listed as Cycloheptaneacetic acid, 3-oxo-2-pentyl-): have moisturizing effects |
| CC(=O)OCc1ccccc1 [benzyl acetate] | suitable moisturizing potential | moisturizing (reduction of water evaporation rate / TEWL after deposit of the sample) (listed as Benzyl acetate): have moisturizing effects |
| O=C1CCCCCCCCCCCCCCO1 [oxacyclohexadecan-2-one] | suitable moisturizing potential | moisturizing (reduction of water evaporation rate / TEWL after deposit of the sample) (listed as Oxacyclohexadecan-2-one): have moisturizing effects |
| (3RS,3aRS,6SR,7aSR)-3,6-dimethylhexahydro-1-benzofuran-2(3H)-one (A)+(3RS,3aSR,6RS,7aRS)-3,6-dimethylhexahydro-1-benzofuran-2(3H)-one (B) | have moisturizing effects; also recorded: suitable moisturizing potential | – |

From US20240299266A1, “FRAGRANCE COMPOSITIONS WITH MOISTURIZING BENEFITS” (Firmenich SA, priority 2021, published 2024)
